Values after ≈ are worked out from the molar mass of the structure shown. Square brackets hold non-standard residues; d marks the D form. Peptide text beside a SMILES is read from it.
What was measured:
E. coli DH5a = type: cell-based; conditions: DH5a
How it was run: (§1)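 First, peptides in 10 mM phosphate pH 7.2 with 0.03% LB meet bacteria (~5×10^6 CFU/ml). Second, incubation runs 3 h at 37 °C. Third, LB is added and plates grow overnight before OD600 reading.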

B. cereus [1] = type: cell-based; conditions: pH 7.2
How it was run: as §1

[2] = system: antibiotic resistant bacteria obtained from clinical isolates; experiment: Susceptibility of antibiotic resistant clinical isolates in DMEM with or without serum; type: cell-based
Experimental: In addition to the data given above, the susceptibility of a panel of antibiotic resistant bacteria obtained from clinical isolates was tested. All of these are killed by the G11.46, G12.21, and G14.15 in DMEM with or without serum.

bacteria = experiment: Activity in DMEM and RPMI media (lysis of bacteria); type: cell-based; conditions: either 10 mM phosphate buffer or DMEM
How it was run: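 Log-phase bacteria (2-4 h after overnight LB growth) exposed to peptides in DMEM or RPMI, with or without 10% fetal calf, human or mouse serum, generally 3 h or less. Viability by CFU: aliquots diluted in LB, plated on LB agar, incubated overnight at 37° C and colonies counted.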

S. aureus = experiment: Mouse wound model of luminescent S. aureus infection; type: in vivo, BALB/c mice
Excerpt: In this protocol, BALB/c mice of 4-6 weeks of age were exposed to wounds on their backs, then inoculated with an infection of S. aureus, which had 10^5 cfu per pocket (2×10^7 […] DMEM) The S. aureus had been transfected with a plasmid containing luciferase as well as the substrate for luciferase. Using a special camera, light is detected from living bacteria in the wound. The light intensity is converted to a color scale. Controls received no peptide, and the treatment group received peptide at the indicated dose. Animals were imaged at 1, 3, 6 and 24 hrs.

Salmonella typhimurium = experiment: CFU assay in 10% FCS/DMEM; type: cell-based; conditions: 3 hrs
Experimental: (§2) The CFU assay is the “gold standard” for evaluating antibiotics. Briefly, bacteria are grown overnight in rich medium, such as LB, and then diluted and grown in log phase for 2-4 hours. Cultures are set up as above, with the initial culture media being 10 mM phosphate buffer/0.03% LB; DMEM or RPMI; or DMEM or RPMI plus 10% serum (fetal calf, human, or mouse). After various periods of time, but generally 3 hours or less, aliquots are removed, diluted in LB at various dilutions, and plated on LB agar plates. Plates are incubated overnight at 37° C. and counted on an automatic colony counter.
(§3) Three preferred peptides G11.46, G12.21 and G14.15, discussed above, were further tested for antimicrobial efficacy under various conditions using the 10% FCS/DMEM assay as described under CFU assay. The incubation times with the bacteria and peptide was three hours, at which time the bacteria were diluted and plated on agar. […] The MIC for each compound is highlighted.

Staphylococcus aureus = experiment: CFU assay in 10% FCS/DMEM; type: cell-based; conditions: 3 hrs
Experimental: as §2, §3

E. coli = experiment: CFU assay in 10% FCS/DMEM; type: cell-based; conditions: 3 hrs
Experimental: as §2, §3

B. cereus [3] = experiment: CFU assay in 10% FCS/DMEM; type: cell-based; conditions: 3 hrs
Experimental: as §2, §3

bacterial strains = experiment: organism not typed; type: cell-based
Experimental: as §3
Table 9 below repeats some data presented above in Tables 6, 7, and 8.

In the case of CSCC[C@H](NC(=O)[C@H](Cc1ccccc1)NC(=O)[C@@H](CCCNC(=N)N)NC(=O)[C@@H](CCCNC(=N)N)NC(=O)[C@H](CO)NC(=O)[C@@H](NC(=O)[C@@H](CCCNC(=N)N)NC(=O)[C@@H](CCCNC(=N)N)NC(=O)[C@@H](CCCNC(=N)N)NC(=O)[C@@H](CCCNC(=N)N)NC(=O)[C@@H](CCCNC(=N)N)NC(=O)[C@@H](CCCNC(=N)N)NC(=O)[C@H](N)CCCNC(=N)N)C(C)C)C(=O)N[C@H](CCCNC(=N)N)C(=O)N[C@H](CCCNC(=N)N)C(=O)O [Peptide G11.46, rrrrrrrVSrrFMrr] (H-[dR][dR][dR][dR][dR][dR][dR]VS[dR][dR]FM[dR][dR]-OH; N-terminus and C-terminus assumed), the MIC (E. coli DH5a) is reported as 0.8 µM (≈ 1.76 µg/mL), the “E. coli DH5a MIC” value (E. coli DH5a; pH 7.2) is reported as 0.8 µM and the IC50 (E. coli DH5a; pH 7.2) is reported as 100 nM. The “B. cereus MIC” value (B. cereus [1]) was 0.35 µM, the IC50 (B. cereus [1]) was 200 nM and the “killing of antibiotic resistant clinical isolates” value [2] was “killed”. For the same molecule, the “lysis of bacteria and fungi” value (bacteria) was “lyse both gram negative bacteria and gram negative bacteria, as well as fungi”, the “light units from S. aureus in wound” value (S. aureus; 25 μg and 100 μg, data not shown) was “significant reduction in light units” and the “light units from S. aureus in wound” value (S. aureus; 100 μg, after 6 hrs.) was “light units approached levels obtained with the blank”. For the same molecule, the recovery of bacteria (S. aureus; by 24 hours) was “some recovery of bacteria by 24 hours”, the “% Survival (CFU Assay)” value (Salmonella typhimurium; 0.02 μM) was 116.09% and the “% Survival (CFU Assay)” value (Salmonella typhimurium; 0.04 μM) was 126.32%. For the same molecule, the “% Survival (CFU Assay)” value (Salmonella typhimurium; 0.08 μM) was 105%, the “% Survival (CFU Assay)” value (Salmonella typhimurium; 0.16 μM) was 71.35% and the “% Survival (CFU Assay)” value (Salmonella typhimurium; 0.32 μM) was 24.68%. For the same molecule, the “% Survival (CFU Assay)” value (Salmonella typhimurium; 0.63 μM) was 1.45%, the “% Survival (CFU Assay)” value (Salmonella typhimurium; 1.25 μM) was 0.03% and the “% Survival (CFU Assay)” value (Salmonella typhimurium; 2.5 μM) was <0.002%. The “% Survival (CFU Assay)” value (Staphylococcus aureus; 0.005 μM) was 19.9%, the “% Survival (CFU Assay)” value (Staphylococcus aureus; 0.01 μM) was 8.04% and the “% Survival (CFU Assay)” value (Staphylococcus aureus; 0.02 μM) was 2.3%. The “% Survival (CFU Assay)” value (Staphylococcus aureus; 0.04 μM) was 0.84%, the “% Survival (CFU Assay)” value (Staphylococcus aureus; 0.08 μM) was 0.2% and the “% Survival (CFU Assay)” value (Staphylococcus aureus; 0.16 μM) was 0.02%. The “% Survival (CFU Assay)” value (E. coli; 0.01 μM) was 98.89%, the “% Survival (CFU Assay)” value (E. coli; 0.02 μM) was 166.22% and the “% Survival (CFU Assay)” value (E. coli; 0.04 μM) was 132.25%. The “% Survival (CFU Assay)” value (E. coli; 0.08 μM) was 89.24%, the “% Survival (CFU Assay)” value (E. coli; 0.16 μM) was 31.77% and the “% Survival (CFU Assay)” value (E. coli; 0.32 μM) was 2.02%. The “% Survival (CFU Assay)” value (E. coli; 0.63 μM) was <0.002%, the “% Survival (CFU Assay)” value (E. coli; 1.25 μM) was <0.002% and the “% Survival (CFU Assay)” value (B. cereus [3]; 0.005 uM) was 103.49%. The “% Survival (CFU Assay)” value (B. cereus [3]; 0.01 uM) was 44.62%, the “% Survival (CFU Assay)” value (B. cereus [3]; 0.02 uM) was <0.5% and the “% Survival (CFU Assay)” value (B. cereus [3]; 0.04 uM) was 0.02%. The “% Survival (CFU Assay)” value (B. cereus [3]; 0.08 uM) was 0.002%, the “% Survival (CFU Assay)” value (B. cereus [3]; 0.16 uM) was 0.002% and the MIC (bacterial strains; ATCC#25922, 3 h) was 0.32 to 0.63 µM. The MIC (bacterial strains; ATCC#29213, 3 h) was 0.04 to 0.08 µM, the MIC (bacterial strains; ATCC#53522, 3 h) was 0.02 µM (≈ 0.044 µg/mL) and the MIC (bacterial strains; SL1344, 3 h) was 0.63 to 1.25 µM.

— patent US7745390B2, “Antimicrobial peptides” (priority 2005, dated 2010)
